pEC50: −log10 of the molar value.

One series deals with Zucker obese fa/fa rats. In words: Oral Glucose Tolerance Test (OGTT). The series is classed as in vivo, rat. As to conditions: 10 mg/kg, given orally 120 minutes before glucose 2 g/kg; percent inhibition of blood glucose AUC vs vehicle. The method, then:
The animals were fasted for 2 hours before use for experiments. A test compound or a vehicle was given orally 120 minutes before oral administration of a glucose solution at a dose of 2 g/kg body weight. Blood glucose levels were measured using a Accucheck glucometer from tail bled samples taken at different time points before and after administration of glucose (time course of 60 minutes). […] Percent inhibition was determined using the AUC in the vehicle-control group as zero percent inhibition.

A short description of another series: Oral exposure. The series is classed as in vivo. To be noted: compared with Example II107 in WO 03/015774.
Series [1] addresses T1, recombinant human pancreatic GLK (Homo sapiens, UniProt P35557).
T1 construct: 6-His (N); made in house; host or cells: E. coli BL21
T1 sequence (P35557 1-465): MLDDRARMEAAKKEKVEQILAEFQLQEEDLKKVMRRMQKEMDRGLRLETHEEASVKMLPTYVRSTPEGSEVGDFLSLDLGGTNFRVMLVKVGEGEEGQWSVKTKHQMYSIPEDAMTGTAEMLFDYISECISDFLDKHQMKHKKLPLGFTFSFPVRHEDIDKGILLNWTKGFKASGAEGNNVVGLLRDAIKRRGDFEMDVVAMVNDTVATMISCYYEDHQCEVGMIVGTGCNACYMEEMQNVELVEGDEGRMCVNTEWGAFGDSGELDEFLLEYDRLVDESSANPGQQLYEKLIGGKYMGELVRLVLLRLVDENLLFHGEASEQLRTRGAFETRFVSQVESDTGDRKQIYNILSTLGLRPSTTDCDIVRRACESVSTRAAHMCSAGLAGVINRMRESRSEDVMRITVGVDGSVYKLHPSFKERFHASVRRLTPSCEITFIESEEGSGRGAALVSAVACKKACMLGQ
In words: Enzymatic activity of glucokinase (GLK activation, G-6-P dehydrogenase coupled, OD 340 nm). Format: biochemical.

In the case of `COC[C@H](C)Oc1cc(Oc2ccc(S(C)(=O)=O)cc2)cc(C(=O)Nc2nccs2)c1` [Example 11b, 3-[(1S)-2-methoxy-(1-methylethyl)oxy]-5-[4-(methylsulfonyl)phenoxy]-N-1,3-thiazol-2-ylbenzamide], in the series on Zucker obese fa/fa rats, the OGTT activity worked out at 29%. Also, the oral exposure entry in the series “Oral exposure” is listed as “superior oral exposure”. Further, the “EC50 values, Example 11b compared with Example II107 in WO 03/015774” value in series [1] (comparison in words) is given as “broadly similar”. Also, in series [1] (read-out: activating activity for glucokinase, EC50), the pEC50 (in general, the EC50 on a negative log10 scale, so that one unit is a factor of ten) is 7.52.

Values taken from patent US20080280872A1, “Benzamide Derivatives and Their Use as Glucokinase Activating Agents” (priority 2004, published 2008).
